Assay results taken from article PMC7156458, “Synthetic biology based construction of biological activity-related library of fungal decalin-containing diterpenoid pyrones” (Nature Communications, 2020).
Where “and” joins values, the source holds several entries; their conditions need not be identical. Equal values may be shown once.

Legend:
MCF-7 cells [1] = assay: cell cytotoxic effects against MCF-7 cells (72 h), A490; type: cell-based, human; details: for viability at 0.1 µM / viability at 1 µM / viability at 10 µM: Homo sapiens, MCF7, 72 h, read-out: A490 (control =1) ave; for viability at 0.1 µM / viability at 1 µM / viability at 10 µM / A490 ave: MCF-7, 72 h
Protocol: !" ' ' '! !" ' ' '! !" ' ' '!!" ' ' '!!" ' ' '!!" ' ' '!!" ' ' '!!" ' ' '! !" ' ' '! !" ' ' '! !" ' ' '! !"#$
( % ) * '! '' '# '+ '$ '( '%
! " # $ %& %% %' %( %) %! %"
!" ' ' '! !" ' ' '!!" ' ' '!!" ' ' '!!" ' ' '!!" ' ' '!!" ' ' '! !" ' ' '! !" ' ' '! !" ' ' '! !" ' ' '! […]
Supplementary Fig. 46. a, Cell cytotoxic effects of DDPs against MCF-7 cells (72 h).
dose dependent cytotoxic effects against MCF-7 cells were tested their inhibitory activity against mammosphere
formation. Compound in blue (16) was also performed mammosphere assay as negative control. Data represent
mean±s.d. from three independent replicate experiments. […]
Source data underlying Supplementary Figure 46a are provided in a Source Data file. […]

[2] = system: hepatitis B virus (HBV), measles virus (MV), Epstein-Barr virus (EBV), herpes simplex virus (HSV); assay: preliminary anti-viral screening (other viruses); type: cell-based
Source text: We examined the inhibitory activities of DDPs against various species of bacteria (both gram-negative and gram-positive bacteria), fungi and viruses. […] In contrast, preliminary screening of the DDPs for anti-viral agents with hepatitis B virus (HBV), measles virus (MV), Epstein-Barr virus (EBV), herpes simplex virus (HSV) and human immunodeficiency virus-1 (HIV-1) indicated their selective inhibition of HIV.

MCF-7 cells [3] = assay: mammosphere formation assay; type: cell-based, human; details: MCF-7, 5 μM; for MFE (%) ave / MFE (control = 1) ave / MFE (%): 7 days; for MFE (%) ave: mean of 3, control 0.87; for MFE (control = 1) ave: relative to control = 1; for MFE (%): single replicates
Protocol: We also evaluated antiproliferative activity against cancer stem cells (CSCs), which are a small sub-population in tumour bulk identified in most cancer cells and clinical samples[52]. CSCs have been a major problem in cancer therapy because they are responsible for recurrence, metastasis and drug resistance to chemotherapeutic agents that affect proliferative cells[53]–[56]. Anti-CSC activity was evaluated by the inhibition of sphere-forming ability, a well-studied method to enrich the CSC-like population, and selective cytotoxicity against one of the most reliable CSC markers, aldehyde dehydrogenase (ALDH)-positive cells. […] Low-toxicity 16 was also added as a negative control. […] We next evaluated the three DDPs that inhibited mammosphere formations against ALDH-positive cells, a functional marker for breast CSCs. MCF-7 cells were treated with 1 μM of 11, 12 or 22, and the ALDH-positive cell population was analysed by using a fluorescence activated cell sorter (Supplementary Fig. 46b). […] Thus, for the first time, we successfully found DDPs with potent antiproliferative effects on the CSC-like population in MCF-7 cells, which may lead to new anti-CSC drugs.
Fig. 5 DDPs show anti-CSC activity in breast cancer cell line MCF-7. a Effect of DDPs on mammosphere formation. After the cells were cultured in the presence of 5 μM DDPs for 7 days, the number of mammospheres was microscopically counted and the percentage of mammosphere-forming cells was determined as mammosphere-forming efficiency (MFE; %). Data represent mean ± s.d. from three independent replicate experiments. P-values were calculated by a two-sided unpaired Student’s t-test, compared with control. b Micrographs show representative images of mammosphere formation from three independent replicate experiments using compound 11, 12, 16, 22. The scale bar, […]. c Effect of DDPs (1 μM, 3 days) on ALDH-positive cells in MCF-7 cells. Data represent mean ± s.d. from three independent replicate experiments. P-values were calculated by a two-sided unpaired Student’s t-test, compared with control. d Dose-dependent effect of compound 12 on ALDH-positive cells in MCF-7 cells. Data represent mean ± s.d. from three independent replicate experiments. P-values were calculated by a two-sided unpaired Student’s t-test. Source data underlying Fig. 5a, c, d are provided in a Source Data file.

OVCAR-4 = assay: cells; parameters: species or system JFCR39 human cancer cell lines; JFCR39 panel growth inhibition, sulforhodamine B total protein after 48 h; details: Homo sapiens, OVCAR-4, 48 h
Protocol: (§1) Supplementary Note 24. Antiproliferative effects across the panel of JFCR39 cancer cell lines A panel of 39 human cancer cell lines, termed JFCR39, were previously described13-16. Cells were grown in RPMI-1640 (FUJIFILM Wako Pure Chemical Corporation, Tokyo, Japan) supplemented with 1 µg mL-1 kanamycin and 5% (v/v) fetal bovine serum (Nichirei Biosciences Inc, Tokyo, Japan) and incubated at 37°C in a humidified atmosphere supplemented with 5% CO2. Drug efficacy was assessed as changes in total cellular protein after 48 hours of drug treatment using a sulforhodamine B assay. Assays were done in duplicate and the GI50 was calculated as described previously13,16. The antitumor profile across the JFCR39 panel, or fingerprints were then compared to reference database containing ~2000 compounds by COMPARE algorithm16,17. Initially, we evaluated new DDP analogues for their antiproliferative activities across the panel of 39 human cancer cell lines, JFCR39[50],[51].

PC-3 = assay: cells; parameters: species or system JFCR39 human cancer cell lines; JFCR39 panel growth inhibition, sulforhodamine B total protein after 48 h; details: Homo sapiens, PC-3, 48 h
Protocol: as §1

LOX-IMVI = assay: cells; parameters: species or system JFCR39 human cancer cell lines; JFCR39 panel growth inhibition, sulforhodamine B total protein after 48 h; details: Homo sapiens, LOX IMVI, 48 h
Protocol: as §1

NCI-H23 = assay: cells; parameters: species or system JFCR39 human cancer cell lines; JFCR39 panel growth inhibition, sulforhodamine B total protein after 48 h; details: Homo sapiens, NCI-H23, 48 h
Protocol: as §1

HCC2998 = assay: cells; parameters: species or system JFCR39 human cancer cell lines; JFCR39 panel growth inhibition, sulforhodamine B total protein after 48 h; details: Homo sapiens, HCC 2998, 48 h
Protocol: as §1

MKN1 = assay: cells; parameters: species or system JFCR39 human cancer cell lines; JFCR39 panel growth inhibition, sulforhodamine B total protein after 48 h; details: Homo sapiens, MKN-1, 48 h
Protocol: as §1

DMS114 = assay: cells; parameters: species or system JFCR39 human cancer cell lines; JFCR39 panel growth inhibition, sulforhodamine B total protein after 48 h; details: Homo sapiens, DMS-114, 48 h
Protocol: as §1

[4] = 0.1 µM (DMSO 0.002%), control 1.064
[5] = 1 µM (DMSO 0.02%), control 1.104
[6] = 10 µM (DMSO 0.2%), control 1.049

| SMILES | cytotoxicity against the bulk of MCF-7 cells (MCF-7 cells [1]) | viability at 0.1 µM (MCF-7 cells [1]; 0.1 µM (DMSO 0.002%)) | viability at 1 µM (MCF-7 cells [1]; 1 µM (DMSO 0.02%)) | viability at 10 µM (MCF-7 cells [1]; 10 µM (DMSO 0.2%)) | A490 ave (MCF-7 cells [1]; [4]) | A490 ave (MCF-7 cells [1]; [5]) | A490 ave (MCF-7 cells [1]; [6]) | effect on other viruses [2] | MFE (%) ave (MCF-7 cells [3]) | MFE (control = 1) ave (MCF-7 cells [3]) | MFE (%) (MCF-7 cells [3]) | GI50 (OVCAR-4) | GI50 (PC-3) | GI50 (LOX-IMVI) | GI50 (NCI-H23) | effect on sphere formation (MCF-7 cells [3]) | GI50 (HCC2998) | GI50 (MKN1) | GI50 (DMS114) |
| --- | --- | --- | --- | --- | --- | --- | --- | --- | --- | --- | --- | --- | --- | --- | --- | --- | --- | --- | --- |
| C=C1CC[C@H]2[C@]3(C)C[C@@H](C=C(C)C)O[C@H]3CC[C@]2(C)[C@@H]1Cc1c(O)c(C)c(C)oc1=O [Compound 5, subglutinol A] | dose-dependent cytotoxicity | 45.9% | 45.5% | 8.4% | 0.489 | 0.503 | 0.088 | without affecting other viruses | 1.13% | 1.30 | 1.04% and 1.24% and 1.10% |  |  |  |  |  |  |  |  |
| C=C1CCC2C(C)(CC(=O)C=C(C)C)C(O)CCC2(C)C1Cc1c(O)c(C)c(C)oc1=O (stereo not shown) [Compound 7] |  | 81% | 92.4% | 104% | 0.862 | 1.021 | 1.095 |  |  |  |  | 35.8 µM | 83 µM | 12.2 µM | 13.2 µM |  |  |  |  |
| C=C1CCC2C(C)(CCC=C(C)C)C(O)CCC2(C)C1Cc1c(OC)oc(C)c(C)c1=O (stereo not shown) [Compound 11] | dose-dependent cytotoxicity | 92.2% | 34.3% | 21.4% | 0.981 | 0.379 | 0.224 | without affecting other viruses | 0.46% | 0.53 | 0.47% and 0.44% | 9.06 µM |  |  |  | clearly inhibited sphere formation | 36.7 µM | 30.6 µM | 0.0565 µM |
| C=C1CCC2C(C)(CCC=C(C)C)C(O)CCC2(C)C1Cc1c(OC)oc(CO)c(C(=O)OC)c1=O (stereo not shown) [Compound 13] |  | 89.1% | 106% | 98.6% | 0.948 | 1.176 | 1.034 |  |  |  |  | 15.5 µM | 14.8 µM | 13.7 µM | 10.9 µM |  | 17.7 µM | 18.8 µM | 5.89 µM |
| C=C1CC[C@H]2[C@]3(C)C[C@H](C=C(C)C)O[C@H]3CC[C@]2(C)[C@@H]1Cc1c(OC)oc(CO)c(C)c1=O [Compound 18] | dose-dependent cytotoxicity | 65.7% | 26.3% | 15% | 0.699 | 0.290 | 0.158 | without affecting other viruses | 0.64% | 0.74 | 0.66% and 0.58% and 0.68% |  |  |  |  |  |  |  |  |
| C=C1CCC2C(C)(CC(=O)C=C(C)C)C(O)CCC2(C)C1Cc1c(OC)oc(CO)c(C)c1=O (stereo not shown) [Compound 19] |  | 65% | 110% | 104% | 0.691 | 1.209 | 1.093 |  |  |  |  | 52.6 µM | 24.1 µM | 13.6 µM | 11.9 µM |  |  | 78.2 µM | 6.52 µM |
| C=C1CC[C@@H]2[C@](C)(CC[C@H]3O[C@H](C=C(C)C)C[C@@]23C)[C@@H]1Cc1c(OC)oc(CO)c(C)c1=O [Compound 20] | dose-dependent cytotoxicity | 90% | 45.3% | 29.4% | 0.958 | 0.500 | 0.308 | without affecting other viruses | 0.77% | 0.89 | 0.76% and 0.80% | 11.9 µM | 11.4 µM | 10.1 µM |  |  | 15.9 µM | 14.6 µM | 0.0476 µM |
| C=C1CC[C@@H]2[C@](C)(CC[C@H]3O[C@H](C=C(C)C)C[C@@]23C)[C@@H]1Cc1c(OC)oc(C)c(C)c1=O [Compound 22, O-methylated higginsianin A] | dose-dependent cytotoxicity | 81.4% | 48% | 30.1% | 0.866 | 0.530 | 0.316 |  | 0.41% | 0.47 | 0.40% and 0.42% | 2.77 µM |  | 1.17 µM | 0.729 µM | clearly inhibited sphere formation | 8.85 µM | 10.2 µM | 0.0601 µM |
| C=C1CCC2C3(C)CC(C=C(C)C)OC3CCC2(C)C1Cc1c(OC)oc(C)c(C)c1=O (stereo not shown) [Compound 23] | dose-dependent cytotoxicity | 62.5% | 21.6% | 14.8% | 0.664 | 0.239 | 0.155 | without affecting other viruses | 0.66% | 0.76 | 0.60% and 0.72% and 0.66% |  |  |  |  |  |  |  |  |
